Test systems include KM12; UACC-257; SK-OV-3; SF-539; HL-60; EKVX; NCI-H522; MOLT-4; SF-268; HCT-116; SN12C; SK-MEL-28; COLO 205; HT-29; UACC-62; OVCAR-3; OVCAR-5; RPMI-8226.
Assay in all cases: inhibition of tumour cell growth, NCI panel, 48 h

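Test compounds were applied to cells in 96-well plates for 48 hours at 5 doses. GI50 marks 50% less growth.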 The source made the active and inactive calls. Cut-off read from the data, not from the text of the source: active = GI50 up to about 1.1 µM and inactive = higher. A value given as a limit tells only on which side of the number the result lay.

As for `CC(Oc1ccc2c(-c3ccc(Cl)cc3)cc(=O)oc2c1)C(=O)O` (stereo unspecified), the GI50 in the assay with KM12, with UACC-257, with SK-OV-3, in the assay on SF-539, with HL-60 and with EKVX was > 100 µM (inactive) in each case. The GI50 in the assay with NCI-H522, with MOLT-4, in the assay on SF-268, in the assay with HCT-116, in the assay with SN12C and in the assay on SK-MEL-28 was > 100 µM (inactive) each time. For the same compound, the GI50 in the assay with COLO 205, in the assay on HT-29, with UACC-62 and in the assay with OVCAR-3 was > 100 µM (inactive) each time.

As for `O=C(CC1C(=O)Nc2ccccc2S1(=O)=O)Nc1cc(Cl)ccc1Cl` (stereo unspecified), the GI50 in the assay with OVCAR-5 is 24.4 µM (inactive); in the assay on UACC-257 it was 35.2 µM (inactive); with SF-539, 2.4 µM (inactive); in the assay with HL-60, 11.8 µM (inactive); in the assay on EKVX it was 10.6 µM (inactive); in the assay with RPMI-8226 it was 2.87 µM (inactive). Moreover, the GI50 with MOLT-4 is 6.01 µM (inactive); with SF-268 it was 10.8 µM (inactive); in the assay on HCT-116, 14.4 µM (inactive); in the assay on SN12C, 15.6 µM (inactive); with SK-MEL-28, 16.6 µM (inactive); with HT-29, 17.4 µM (inactive). Moreover, the GI50 in the assay with UACC-62 and in the assay on OVCAR-3 was 14.6 µM (inactive) each time.

For the compound `C=C(C)CC(C)(c1cc2ccccc2n1C)N1CCOCC1` (stereo unspecified), the GI50 with KM12 is 38.4 µM (inactive); with UACC-257, 95.1 µM (inactive); in the assay with SK-OV-3, > 100 µM (inactive); in the assay with SF-539, > 100 µM (inactive); in the assay with HL-60, 57 µM (inactive); in the assay on EKVX, 36.4 µM (inactive). Also, the GI50 was 10.6 µM (inactive) in the assay with NCI-H522; 40.3 µM (inactive) in the assay with MOLT-4; 41.5 µM (inactive) in the assay with SF-268; 60.1 µM (inactive) in the assay on HCT-116; 93.5 µM (inactive) in the assay with SN12C; > 100 µM (inactive) in the assay with SK-MEL-28. The GI50 with COLO 205 was > 100 µM (inactive); in the assay with HT-29 it was > 100 µM (inactive); in the assay on UACC-62, 45.1 µM (inactive); in the assay on OVCAR-3, 66.5 µM (inactive).

As to `O=C1CCCCCCC2=C1C(Sc1ccccc1)CC2` (stereo unspecified), the GI50 in the assay with KM12 is 23.2 µM (inactive); with UACC-257 it was 43.2 µM (inactive); with SK-OV-3, 83 µM (inactive); in the assay on HL-60 it was 12.8 µM (inactive); in the assay on EKVX it was 20.5 µM (inactive); in the assay with NCI-H522, 18.5 µM (inactive). The GI50 in the assay on RPMI-8226 is 30.3 µM (inactive); with MOLT-4 it was 18.1 µM (inactive); with SF-268, 19.9 µM (inactive); in the assay with HCT-116, 21.7 µM (inactive); in the assay with SN12C, 19.9 µM (inactive); in the assay on SK-MEL-28, 32.4 µM (inactive). In addition, the GI50 in the assay on COLO 205 is 62.8 µM (inactive); in the assay with HT-29, 34 µM (inactive); in the assay on UACC-62 it was 36.1 µM (inactive).

Regarding `CCOC(=O)NC(=O)c1cn(C(CC)COC(=O)NCCCCCCNC(=O)OCC(CC)n2cc(C(=O)NC(=O)OCC)c(=O)[nH]c2=O)c(=O)[nH]c1=O` (stereo unspecified), the GI50 in the assay on KM12, in the assay with UACC-257, in the assay on SK-OV-3, in the assay with HL-60, in the assay on EKVX and in the assay with NCI-H522 was > 100 µM (inactive) in each case. Moreover, the GI50 in the assay on RPMI-8226, in the assay with MOLT-4, in the assay with SF-268, in the assay on HCT-116, with SN12C and in the assay on SK-MEL-28 was > 100 µM (inactive) throughout. Besides, the GI50 in the assay with COLO 205, in the assay on HT-29, in the assay on UACC-62 and with OVCAR-3 was > 100 µM (inactive) each time.

In the case of `CC(C)(C)N/N=C(\C(=O)Nc1cccc(Cl)c1)C1C(=O)Nc2ccccc2[S+]1[O-]` (stereo unspecified), the GI50 in the assay on KM12, in the assay with UACC-257, in the assay with SK-OV-3, in the assay with SF-539, in the assay on HL-60 and in the assay on EKVX was > 100 µM (inactive) throughout. Further, the GI50 was > 100 µM (inactive) in the assay with NCI-H522; > 100 µM (inactive) in the assay on MOLT-4; > 100 µM (inactive) in the assay with SF-268; > 10 µM (inactive) in the assay with HCT-116; > 100 µM (inactive) in the assay with SN12C; > 100 µM (inactive) in the assay with SK-MEL-28. For the same compound, the GI50 in the assay on COLO 205, in the assay on HT-29, with UACC-62 and in the assay on OVCAR-3 was > 100 µM (inactive) in each case.

Regarding `COC(=O)C12CC(C3CC31)C1CC12` (stereo unspecified), the GI50 with OVCAR-5, in the assay with UACC-257, in the assay on SK-OV-3, in the assay on HL-60, in the assay with RPMI-8226 and with MOLT-4 was > 100 µM (inactive) in each case. In addition, the GI50 in the assay on SF-268, in the assay with HCT-116, with SN12C, in the assay with SK-MEL-28, with COLO 205 and with HT-29 was > 100 µM (inactive) throughout. Further, the GI50 in the assay with UACC-62 and with OVCAR-3 was > 100 µM (inactive) each time.

For `CC(C)(C)c1cc(C(O)(C(F)(F)F)C(F)(F)F)c2c(c1)C(C(F)(F)F)(C(F)(F)F)OC(C)(C(C)(C)C)N2` (stereo unspecified), the GI50 in the assay on OVCAR-5 was 7.13 µM (inactive); with KM12 it was 3.94 µM (inactive); with UACC-257, 5.19 µM (inactive); with SK-OV-3, 2.25 µM (inactive); in the assay with SF-539, 3.55 µM (inactive); with EKVX it was 3.94 µM (inactive). In addition, the GI50 in the assay on NCI-H522 is 1.82 µM (inactive); in the assay with RPMI-8226 it was 2.57 µM (inactive); in the assay on MOLT-4, 2.54 µM (inactive); in the assay on HCT-116 it was 3.42 µM (inactive); in the assay with SN12C, 4.45 µM (inactive); in the assay on SK-MEL-28, 8.28 µM (inactive). In addition, the GI50 in the assay with COLO 205 is 2.05 µM (inactive); in the assay on HT-29 it was 3.4 µM (inactive); in the assay on UACC-62, 3.58 µM (inactive); with OVCAR-3, 0.776 µM (active).

For `O=c1/c(=C/c2ccccc2[N+](=O)[O-])sc2nnc(-c3cccnc3)n12`, the GI50 in the assay with OVCAR-5, with KM12, in the assay on UACC-257, in the assay with SF-539, with HL-60 and with EKVX was > 100 µM (inactive) each time. Besides, the GI50 is > 100 µM (inactive) with RPMI-8226; 63.5 µM (inactive) with MOLT-4; > 100 µM (inactive) in the assay with SF-268; > 100 µM (inactive) with HCT-116; > 100 µM (inactive) with SN12C; > 100 µM (inactive) in the assay with SK-MEL-28. Moreover, the GI50 in the assay with HT-29, in the assay with UACC-62 and in the assay with OVCAR-3 was > 100 µM (inactive) throughout.

On to `CN1C(=O)CC2(C)c3cc(O)cc(Br)c3N(C)C12` (stereo unspecified), for which the GI50 in the assay with OVCAR-5, in the assay on KM12, in the assay on UACC-257, with SK-OV-3, with SF-539 and in the assay with EKVX was > 100 µM (inactive) in each case. In addition, the GI50 in the assay on NCI-H522, with MOLT-4, in the assay with SF-268, with HCT-116, with SN12C and with SK-MEL-28 was > 100 µM (inactive) each time. Moreover, the GI50 with COLO 205 is > 100 µM (inactive); in the assay on HT-29 it was > 100 µM (inactive); with UACC-62 it was 81.5 µM (inactive); in the assay on OVCAR-3, > 100 µM (inactive).

As to `CCCCCCCCCCCCSC(=S)c1c(C)[nH]n(-c2ccccc2)c1=O`, the GI50 in the assay on OVCAR-5 is 16.2 µM (inactive); with UACC-257, 8.04 µM (inactive); in the assay with SK-OV-3, 16.3 µM (inactive); in the assay on SF-539, 14.3 µM (inactive); with HL-60, 8.59 µM (inactive); in the assay on EKVX, 19.1 µM (inactive). Besides, the GI50 in the assay with RPMI-8226 is 11.2 µM (inactive); with MOLT-4, 6.61 µM (inactive); with SF-268, 12.6 µM (inactive); with SN12C, 8.28 µM (inactive); with SK-MEL-28, 7.36 µM (inactive); in the assay with COLO 205 it was 15.3 µM (inactive). For the same compound, the GI50 was 14.3 µM (inactive) in the assay with HT-29, 3.52 µM (inactive) in the assay with UACC-62 and 13.3 µM (inactive) in the assay on OVCAR-3.

On to `Cc1ccc(NC(=O)C2C(=O)N(c3ccc(C)cc3)C(=O)/C2=N\NC(N)=S)cc1` (stereo unspecified), for which the GI50 with OVCAR-5, in the assay on KM12, with UACC-257, in the assay on SK-OV-3, with SF-539 and in the assay with EKVX was > 100 µM (inactive) in each case. The GI50 with NCI-H522, in the assay with RPMI-8226, in the assay on MOLT-4, with SF-268, in the assay on HCT-116 and with SN12C was > 100 µM (inactive) throughout. The GI50 in the assay with SK-MEL-28, in the assay on COLO 205, in the assay on HT-29, with UACC-62 and in the assay on OVCAR-3 was > 100 µM (inactive) each time.

The record behind these values is ChEMBL document CHEMBL1201862, “PubChem BioAssay data set” (2004).
